According to US7632933B2, “Corticotropin releasing factor 2 receptor agonists” (priority 2002, dated 2009):
Ends that are not written are not given here. Peptide text beside a SMILES is read from it.

Assays:
[1] = molecular target: T1, CRF1R (Homo sapiens, UniProt P34998); experiment: CRF1R agonist activity (EC50 and Emax), called comparative CRF binding; format: cell-based; conditions: CRF1R; read-out: CRF1R EC50
T1 sequence (P34998 24-415): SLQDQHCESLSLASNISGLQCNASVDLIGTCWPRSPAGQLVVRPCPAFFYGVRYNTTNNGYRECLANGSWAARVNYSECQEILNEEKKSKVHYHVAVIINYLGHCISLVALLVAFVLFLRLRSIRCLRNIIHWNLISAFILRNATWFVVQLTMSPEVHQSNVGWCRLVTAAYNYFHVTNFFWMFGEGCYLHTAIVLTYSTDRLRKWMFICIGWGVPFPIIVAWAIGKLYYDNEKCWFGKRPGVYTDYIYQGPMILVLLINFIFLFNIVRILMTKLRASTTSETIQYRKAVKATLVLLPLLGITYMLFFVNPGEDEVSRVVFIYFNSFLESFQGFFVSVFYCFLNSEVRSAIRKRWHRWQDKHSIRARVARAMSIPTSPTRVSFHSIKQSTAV
Text: (§1) The pharmacological activity and selectivity of the peptides of present invention can be determined using published test procedures. See, e.g, U.S. patent application Ser. No. 09/799,978. Because CRF2R and CRF1R are homologous proteins, it is expected that a certain proportion of agonists for CRF2R will also function as agonists of CRF1R. As discussed above, activation of CRF1R induces activation of the HPA axis since increased corticosteroid production leads to skeletal muscle atrophy. In most cases in which an increase in muscle mass or function is desired, it is not desirable to activate the HPA axis.
(§2) Because it is desirable to discriminate binding between CRF2R, as compared with CRF1R, the assays described above may be conducted using a cell, or membrane from a cell, which expresses only CRF2R or the assays can be conducted with a recombinant source of CRF2R. Cells expressing both forms of CRFR may be modified using homologous recombination to inactivate or otherwise disable the CRF1R gene. Alternatively, if the source of CRFR contains more than one CRFR type, the background signal produced by the receptor which is not of interest must be subtracted from the signal obtained in the assay. […] Known antagonists of CRFRs include, but are not limited to, antalarmin (CRF1R selective), antisauvagine-30 (CRF2R selective) and astressin (nonselective for CRF1R/CRF2R).
(§3) Cell-based assays include the steps of contacting cells which express CRF1R or CRF2R with a peptide of the present invention or control and measuring activation of the CRFR by measuring the expression or activity of components of the CRFR signal transduction pathways.
(§4) For example, after contact with a peptide of the present invention, lysates of the cells can be prepared and assayed for induction of cAMP. cAMP is induced in response to Gαs activation. Because Gαs is activated by receptors other than CRFR and because a test peptide may be exerting its effect through CRFRs or by another mechanism, two control comparisons are relevant for determining whether the peptide increases levels of cAMP via activation of a CRFR. One control compares the cAMP level of cells contacted with the peptide and the cAMP level of cells contacted with a control compound (i.e., the vehicle in which the peptide is dissolved).
(§5) In one example, cAMP induction is measured with the use of DNA constructs containing the cAMP responsive element linked to any of a variety of reporter genes can be introduced into cells expressing CRFRs. Such reporter genes include, but are not limited to, chloramphenicol acetyltransferase (CAT), luciferase, glucuronide synthetase, growth hormone, fluorescent proteins (e.g., Green Fluorescent Protein), or alkaline phosphatase. Following exposure of the cells to the peptide, the level of reporter gene expression can be quantitated to determine the peptide's ability to increase cAMP levels and thus determine the peptide's ability to activate the CRFR.
(§6) In addition to using cells expressing full length CRFRs, cells can be engineered which express CRFRs containing the ligand binding domain of the receptor coupled to, or physically modified to contain, reporter elements or to interact with signaling proteins. For example, a wild type CRFR or CRFR fragment can be fused to a G-protein resulting in activation of the fused G-protein upon agonist binding to the CRFR portion of the fusion protein. […] In addition, alternative pathways for induction of the CRE reporter could be eliminated to reduce basal levels.

[2] = molecular target: T2, CRF2R (Homo sapiens, UniProt Q13324); experiment: CRF2R agonist activity (EC50 and Emax), called comparative CRF binding; format: cell-based; conditions: CRF2R; read-out: CRF2R EC50
T2 sequence (Q13324 1-411): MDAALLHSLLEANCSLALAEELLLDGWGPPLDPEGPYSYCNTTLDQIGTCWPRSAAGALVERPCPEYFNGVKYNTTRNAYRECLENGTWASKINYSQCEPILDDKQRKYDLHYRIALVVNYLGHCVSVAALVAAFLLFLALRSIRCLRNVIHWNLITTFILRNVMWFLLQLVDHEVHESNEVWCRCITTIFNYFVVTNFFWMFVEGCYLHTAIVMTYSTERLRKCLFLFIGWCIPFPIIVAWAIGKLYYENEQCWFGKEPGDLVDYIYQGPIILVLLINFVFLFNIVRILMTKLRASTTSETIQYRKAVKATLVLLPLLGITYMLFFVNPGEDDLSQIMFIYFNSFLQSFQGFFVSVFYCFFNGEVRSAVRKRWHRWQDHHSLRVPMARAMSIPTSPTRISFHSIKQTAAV
Text: as §1, §2, §3, §4, §5, §6

Molecule	EC50 [1] [nM]	EC50 [2] [nM]
CC[C@H](C)[C@H](N)C(=O)N[C@H](C(=O)N[C@@H](CC(C)C)C(=O)N[C@@H](CO)C(=O)N[C@@H](CC(C)C)C(=O)N[C@@H](CC(=O)O)C(=O)N[C@H](C(=O)N1CCC[C@H]1C(=O)NCC(=O)N1CCC[C@H]1C(=O)N[C@@H](CC(C)C)C(=O)N[C@@H](CC(C)C)C(=O)N[C@@H](CCC(N)=O)C(=O)N[C@H](C(=O)N[C@@H](CC(C)C)C(=O)N[C@@H](CC(C)C)C(=O)N[C@@H](CCC(=O)O)C(=O)N[C@@H](CCC(N)=O)C(=O)N[C@H](C(=O)N[C@@H](CCCCN)C(=O)N[C@@H](CCC(N)=O)C(=O)N[C@@H](CCC(=O)O)C(=O)N[C@@H](C)C(=O)N[C@@H](C)C(=O)N[C@@H](CCCNC(=N)N)C(=O)N[C@@H](CCC(=O)O)C(=O)N[C@@H](CCC(N)=O)C(=O)N[C@@H](C)C(=O)N[C@H](C(=O)N[C@H](C(=O)N[C@@H](CC(N)=O)C(=O)N[C@@H](C)C(=O)N[C@@H](CCCNC(=N)N)C(=O)N[C@H](C(=O)N[C@@H](CC(C)C)C(=O)N[C@@H](C)C(=O)N[C@@H](CCCNC(=N)N)C(=O)N[C@H](C(N)=O)C(C)C)[C@@H](C)CC)[C@@H](C)O)[C@@H](C)O)[C@@H](C)O)[C@@H](C)CC)C(C)C)C(C)C [compound 5] (H-IVLSLDVPGPLLQILLEQTKQEAAREQATTNARILARV-NH2)	≥ 100	≥ 100
CC[C@H](C)[C@H](N)C(=O)N[C@H](C(=O)N[C@@H](CC(C)C)C(=O)N[C@@H](CO)C(=O)N[C@@H](CC(C)C)C(=O)N[C@@H](CC(=O)O)C(=O)N[C@H](C(=O)N1CCC[C@H]1C(=O)N[C@H](C(=O)NCC(=O)N[C@@H](CC(C)C)C(=O)N[C@@H](CC(C)C)C(=O)N[C@@H](CCC(N)=O)C(=O)N[C@H](C(=O)N[C@@H](CC(C)C)C(=O)N[C@@H](CC(C)C)C(=O)N[C@@H](CCC(=O)O)C(=O)N[C@@H](CCC(N)=O)C(=O)N[C@@H](C)C(=O)N[C@@H](CCCNC(=N)N)C(=O)N[C@@H](C)C(=O)N[C@@H](CCCNC(=N)N)C(=O)N[C@@H](C)C(=O)N[C@@H](C)C(=O)N[C@@H](CCCNC(=N)N)C(=O)N[C@@H](CCC(=O)O)C(=O)N[C@@H](CCC(N)=O)C(=O)N[C@@H](C)C(=O)N[C@H](C(=O)N[C@H](C(=O)N[C@@H](CCC(N)=O)C(=O)N[C@@H](C)C(=O)N[C@@H](CCCNC(=N)N)C(=O)N[C@H](C(=O)N[C@@H](CC(C)C)C(=O)N[C@@H](C)C(=O)N[C@@H](CCCNC(=N)N)C(=O)N[C@H](C(N)=O)C(C)C)[C@@H](C)CC)[C@@H](C)O)[C@@H](C)O)[C@@H](C)CC)[C@@H](C)CC)C(C)C)C(C)C [compound 9] (H-IVLSLDVPIGLLQILLEQARARAAREQATTQARILARV-NH2)	≥ 100	≥ 100
CC[C@H](C)[C@H](NC(=O)[C@H](CC(=O)O)NC(=O)[C@H](CC(C)C)NC(=O)[C@H](CC(C)C)NC(=O)[C@H](CCCCN)NC(=O)[C@H](CCCNC(=N)N)NC(=O)[C@H](CC(N)=O)NC(=O)[C@H](CO)NC(=O)[C@H](Cc1c[nH]cn1)NC(=O)[C@H](C)NC(=O)[C@H](CCC(N)=O)NC(=O)[C@H](CCC(N)=O)NC(=O)[C@H](C)NC(=O)[C@H](CC(C)C)NC(=O)[C@H](CCC(N)=O)NC(=O)[C@H](CC(=O)O)NC(=O)[C@H](C)NC(=O)[C@H](CCCCN)NC(=O)[C@@H](NC(=O)[C@H](CCSC)NC(=O)[C@H](CCC(=O)O)NC(=O)[C@H](CC(C)C)NC(=O)[C@@H](NC(=O)[C@H](CCC(=O)O)NC(=O)[C@H](CCCNC(=N)N)NC(=O)[C@H](CC(C)C)NC(=O)[C@H](CC(C)C)NC(=O)[C@H](Cc1c[nH]cn1)NC(=O)[C@H](Cc1ccccc1)NC(=O)[C@@H]1CCCN1C(=O)[C@H](CC(C)C)NC(=O)[C@H](CC(=O)O)NC(=O)[C@H](CC(C)C)NC(=O)[C@H](CO)NC(=O)[C@@H](NC(=O)[C@@H]1CCCN1C(=O)[C@@H]1CCCN1C(=O)[C@H](CCC(=O)O)NC(=O)[C@H](CCC(N)=O)NC(=O)[C@@H](N)CO)[C@@H](C)CC)C(C)C)[C@@H](C)O)C(=O)N[C@@H](C)C(N)=O [compound 104]	≥ 100	≥ 100
CC[C@H](C)[C@H](N)C(=O)N[C@H](C(=O)N[C@@H](CC(C)C)C(=O)N[C@@H](CO)C(=O)N[C@@H](CC(C)C)C(=O)N[C@@H](CC(=O)O)C(=O)N[C@H](C(=O)N1CCC[C@H]1C(=O)N[C@H](C(=O)NCC(=O)N[C@@H](CC(C)C)C(=O)N[C@@H](CC(C)C)C(=O)N[C@@H](CCC(N)=O)C(=O)N[C@H](C(=O)N[C@@H](CC(C)C)C(=O)N[C@@H](CC(C)C)C(=O)N[C@@H](CCC(=O)O)C(=O)N[C@@H](CCC(N)=O)C(=O)N[C@@H](C)C(=O)N[C@@H](CCCCN)C(=O)N[C@@H](C)C(=O)N[C@@H](CCCNC(=N)N)C(=O)N[C@@H](C)C(=O)N[C@@H](C)C(=O)N[C@@H](CCCNC(=N)N)C(=O)N[C@@H](CCC(=O)O)C(=O)N[C@@H](CCC(N)=O)C(=O)N[C@@H](C)C(=O)N[C@H](C(=O)N[C@H](C(=O)N[C@@H](CC(N)=O)C(=O)N[C@@H](C)C(=O)N[C@@H](CCCNC(=N)N)C(=O)N[C@H](C(=O)N[C@@H](CC(C)C)C(=O)N[C@@H](C)C(=O)N[C@@H](CCCNC(=N)N)C(=O)N[C@H](C(N)=O)C(C)C)[C@@H](C)CC)[C@@H](C)O)[C@@H](C)O)[C@@H](C)CC)[C@@H](C)CC)C(C)C)C(C)C [compound 109] (H-IVLSLDVPIGLLQILLEQAKARAAREQATTNARILARV-NH2; N-terminus assumed)		11.8
CC[C@H](C)[C@H](N)C(=O)N[C@H](C(=O)N[C@@H](CC(C)C)C(=O)N[C@@H](CO)C(=O)N[C@@H](CC(C)C)C(=O)N[C@@H](CC(=O)O)C(=O)N[C@H](C(=O)N1CCC[C@H]1C(=O)N[C@H](C(=O)NCC(=O)N[C@@H](CC(C)C)C(=O)N[C@@H](CC(C)C)C(=O)N[C@@H](CCC(N)=O)C(=O)N[C@H](C(=O)N[C@@H](CC(C)C)C(=O)N[C@@H](CC(C)C)C(=O)N[C@@H](CCC(=O)O)C(=O)N[C@@H](CCC(N)=O)C(=O)N[C@H](C(=O)N[C@@H](CCCCN)C(=O)N[C@@H](C)C(=O)N[C@@H](CCCNC(=N)N)C(=O)N[C@@H](C)C(=O)N[C@@H](C)C(=O)N[C@@H](CCCNC(=N)N)C(=O)N[C@@H](CCC(=O)O)C(=O)N[C@@H](CCC(N)=O)C(=O)N[C@@H](C)C(=O)N[C@H](C(=O)N[C@H](C(=O)N[C@@H](CC(N)=O)C(=O)N[C@@H](C)C(=O)N[C@@H](CCCNC(=N)N)C(=O)N[C@H](C(=O)N[C@@H](CC(C)C)C(=O)N[C@@H](C)C(=O)N[C@@H](CCCNC(=N)N)C(=O)N[C@H](C(N)=O)C(C)C)[C@@H](C)CC)[C@@H](C)O)[C@@H](C)O)[C@@H](C)O)[C@@H](C)CC)[C@@H](C)CC)C(C)C)C(C)C [compound 117] (H-IVLSLDVPIGLLQILLEQTKARAAREQATTNARILARV-NH2; N-terminus assumed)		9.41
SQEPPISLDLPLELLREVLEMTKADQLAQQAHSNRKLLDIA-NH2 [compound 89]		≥ 100
